SMILES strings stand for the structures.

Holding throughout (type): cell-based, human
The subject of test [1] is young and senescent fibroblasts, HUVEC, skin keratinocytes. Briefly: Cell growth / proliferation (cell number count). To be noted: both young and senescent cells, 1 mM dbcAMP after LPA, 4 days (FIG. 3). Here is the method: Sub-cultured young (PD 25, A) and senescent (PD 73, B) fibroblasts were serum-starved for 2 days and treated with LPA, 1 mM of dbcAMP (+dbcAMP), or 300 μM of ACI SQ22536 (+ACI) for 4 days. The number of cells was counted. The results shown represent the means±standard deviation of a representative experiment.
Sub-cultured young (PD 25) and senescent (PD 73) cells (A), fibroblasts from young and elderly donors (B), HUVEC (C) and skin keratinocytes (D) were serum-starved for 2 days and treated with LPA, and then treated with 1 mM of dibutyryl-cAMP, or 300 μM of ACI (SQ22536) for 4 days. The number of cells was counted. The results shown represent the means±standard deviation of a representative experiment.
(§1) Human umbilical vein endothelial cells (HUVEC) were isolated from endothelial cells of umbilical cords as described by Whang et al (Whang et al., 2005). Foreskin human fibroblasts and keratinocytes were isolated from newborn foreskins as described by Boyce and Ham (Boyce and Ham, 1983). Patient consents were obtained from all donors and the use of tissue samples was approved by the ethics committee of the Seoul National University. The obtained and isolated fibroblasts and HUVEC were maintained in DMEM containing 10% fetal bovine serum (FBS) and antibiotics, and keratinotyes were in keratinocyte growth medium (KGM) containing antibiotics. Cells from the early stage of culture were cultured to obtain aged cells, which were used in experiments (population doubling -PD- of less than 25 vs PD 65-70 in fibroblasts, PD less than 5 vs PD 10-12 in case of HUVEC). Senescent cells were characterized by morphological changes, enhanced […]β-galactosidase activity and a reduced rate of proliferation (Yeo et al., 2000). Cells were grown for 2 days to 60-70% sub-confluency in the culture medium after treatment with LPA or ACI, and then serum-starved to quiescence by incubating them with either serum free DMEM containing 0.1% BSA (fibroblasts or HUVEC) or KBM (keratinocytes) for 2 days.

In test [2] the test system is young and senescent fibroblasts (HDFs). Briefly: In vitro wound healing assay (cell migration into acellular area). Here is the method:
Sub-cultured young (A, C) and senescent cells (B, D) were serum-starved for 2 days and treated with ACI or dbcAMP (1 mM) for 2 hr at 37° C. An area was denuded by a yellow tip and the cells were then treated with LPA (30 μM) and incubated at 37° C. Photographs were taken at 6 hrs, 12 hrs, 18 hrs, 24 hrs, 30 hrs, 36 hrs, 42 hrs, 60 hrs, and 72 hrs, and the number of cells migrated into the acellular area was counted and the average values were plotted in A and B. The data at 72 hrs were replotted in a bar graph to show the significant changes induced by treating cells with either LPA or ACI, or both (C and D). The results shown represent the means±standard deviation of a representative experiment. Cell migration from each group (p<0.001) was compared to the control value the migration was read as having a significance.
LPA-induced cell migration was assessed by the ability of the cells to move into an acellular area (Shiraha et al., 2000). Cells were plated on a 10-cm plastic dish and grown to 70-80% confluence in the culture media with 10% FBS. After a 2-day quiescence in serum free media with 0.1% BSA, cells were pretreated with vehicle, ACI (300 μM), or dbcAMP (1 mM) for 2 hrs at 37° C. An area was denuded by a tip and the cells were then incubated at 37° C. without or with LPA (30 μM). Photographs were taken at 6 hrs, 12 hrs, 18 hrs, 24 hrs, 30 hrs, 36 hrs, 42 hrs, 60 hrs, and 72 hrs, and the number of cells migrating to the acellular area was counted.

In test [3] the test system is young and senescent fibroblasts, HUVEC, skin keratinocytes. Briefly: DNA synthesis ([3H]-thymidine incorporation). Particulars: senescent cells; 1 mM dbcAMP or 300 μM ACI 2 hrs, then 30 μM LPA (FIG. 4A). Here is the method: as §1, with “Sub-cultured young (PD 25) and senescent (PD 73) cells (A), skin fibroblasts from young and elderly donors (B), HUVEC (C) and skin keratinocytes (D) were serum-starved for 2 days and treated with 1 mM of dibutyryl-cAMP (dbcAMP), or 300 […]μM of ACI (SQ22536) for 2 hrs. Cells were then treated with 30 μM of LPA in the presence of 0.5 μCi/ml of [^3H]-radioactive isotope. The radioactivity incorporated into the DNA was counted and fold increase of radioactive isotope incorporation was calculated and plotted. The results shown represent the means±standard deviation of a representative experiment. Human” for “Human”, “days. […] Radioactivity in the neutralized lysates was counted in a liquid scintillation cocktail. The measured radioactivity as such was compared to that of control to find the synthesis degree of […].” for “days.”
For orientation: Incorporation of labelled thymidine or its analogues reports DNA synthesis.

On to `CCCC(=O)Nc1ncnc2c1ncn2[C@@H]1O[C@@H]2COP(=O)(O)O[C@H]2[C@H]1OC(=O)CCC` [dbcAMP, dibutyryl cAMP], for which the LPA-induced proliferation entry in test [1] was “decreased”. Further, the LPA-induced cell migration result in test [2] (dbcAMP 1 mM with LPA 30 μM) is “reduced”. The basal cell migration entry in test [2] (young and senescent cells, 1 mM dbcAMP) is “did not significantly affect”. In addition, in test [3], the “basal and LPA-stimulated DNA synthesis in senescent cells” value is on record as “decreased”.

These data come from patent publication US20120083472A1, “PHARMACEUTICAL COMPOSITION FOR PROMOTING THE HEALING OF WOUNDS AND CONTAINING LYSOPHOSPHATIDIC ACID AND AN ADENYLYL CYCLASE INHIBITOR AS ACTIVE INGREDIENTS” (SNU R&DB FOUNDATION, priority 2009, published 2012).
